From patent publication US20150274639A1, “METHODS OF USE FOR COMPOSITIONS COMPRISING A BIOCIDAL POLYAMINE” (Curza Global, LLC, priority 2013, published 2015)
In brackets after ≈: the same amount, converted by molar mass. Several values for one entry are separate records, joined by “and”; a condition that tells them apart may be missing. Identical values can stand only once.

Legend:
MRSA biofilm [1] = assay: EBEC, high number biofilms on PEEK membranes (10^9 to 10^2 CFU/PEEK membrane in 24 hours); type: cell-based, methicillin-resistant Staphylococcus aureus; conditions: Staphylococcus aureus, Table 3B titled MICs, group head missing, values match EBEC
P. aeruginosa biofilm [2] = assay: as above; type: cell-based; conditions: Pseudomonas aeruginosa; Table 3B titled MICs; group head missing, values match EBEC
Method: In addition to determining the MIC and the MBEC of polyamine compounds against planktonic bacteria and low number biofilms, our group wanted to determine the efficacy of polyamine compounds against high number biofilms. To do so, biofilms were grown on the surface of polyetheretherketone (PEEK) membranes using a membrane biofilm reactor. This reactor is similar to the CDC biofilm reactor, but rather than growing biofilms on coupon surfaces, the reactor was modified to hold PEEK membranes. In short, to grow biofilms within this system, 500 mL of brain heart infusion (BHI) broth were inoculated with 1 mL of a 0.5 McFarland. The reactor was placed on a hot plate set at 34° C. and the bacteria were grown under batch conditions for 24 hours. Following this protocol, biofilms typically grow to 10^9 CFU/PEEK membrane. […] A solution of 10% BHI was then flowed through the reactor at a rate of 6.94 mL/min for an additional 24 hours. PEEK membranes were then removed and placed into 2 mL of CAMHB that contained a desired concentration of polyamine compound or antibiotic. The EBEC was defined as the concentration of antimicrobial required to reduce a biofilm from approximately 10^9 CFU/PEEK membrane to approximately 10^2 CFU/PEEK membrane in a 24-hour period.

MRSA = assay: MIC against MRSA as defined by CLSI (FIG. 25 series); type: cell-based, methicillin-resistant Staphylococcus aureus; conditions: Staphylococcus aureus
Method: To determine the MIC of the polyamine chains alone and the synthesized compounds against MRSA and P. aeruginosa ATCC 27853, a modified protocol from the Clinical and Laboratory Standards Institute (CLSI) guideline M26-A was used. […] All data was collected using cation adjusted MHB for standardization.
As mentioned, MRSA and P. aeruginosa ATCC 27853 were grown on Columbia blood agar plates prior to experimentation. From the blood agar plates, a 0.5 McFarland standard was made of each isolate. This equated to approximately 5×10^7 cells/mL for the MRSA isolate and approximately 3×10^7 cells/mL for the P. aeruginosa ATCC 27853 isolate. Of the 0.5 McFarland stock solution, 50 μL were added to MHB. […] All tests were performed such that a final volume of 5 mL of MHB were obtained. This provided a final bacterial concentration of approximately 5×10^5 cells/mL.
Each sample was incubated in glass test tubes at 37° C. for 24 hours, then plated in duplicate on tryptic soy agar (TSA) using a 10-fold dilution series. TSA plates were further incubated 24 hours at 37° C. The number of colony forming units (CFU) that grew were counted in order to calculate the number of bacteria that were present per mL in the original MHB solution.

P. aeruginosa biofilm [3] = assay: MBEC, MBEC Inoculation Tray by Innovotech (to 10^2 CFU/peg in 24 hours); type: cell-based; conditions: Pseudomonas aeruginosa; Table 3A titled MICs; group head missing, values match MBEC; read-out: MIC, P. aeruginosa (second P. aeruginosa)
From the text: To determine the MBEC of each polyamine compound, the MBEC Inoculation Tray by Innovotech, formerly known as the Calgary biofilm device, was used. Within this device, biofilms grow on the surface of polystyrene pegs, 96 of which are attached to a lid. These pegs are inserted into a flat bottom 96-well plate. In this instance, the MBEC of a molecule was defined as the concentration of compound (in μg/mL) required to reduce 10^5 or 10^6 CFU/peg (biofilm levels varied by isolate) to 10^2 CFU/peg in a 24-hour period.
Following the manufacturer's guidelines, biofilms were grown on the surface of each peg by first making a 0.5 McFarland of each isolate. The 0.5 McFarland was diluted 1:100 in CAMHB. Into each well of a flat bottom 96-well plate, 150 μL of broth were pipetted. The plate was shaken at 100 rpm for 24 hours (P. aeruginosa and A. baumannii) or 48 hours (MRSA). The pegs were then placed into a separate flat bottom 96-well plate for 10 seconds with 200 μL of phosphate buffered saline (PBS) in each well to remove nonadherent cells. The lid was then placed into a 96-well plate that contained varying concentrations of antimicrobial with 200 μL per well. The plate was incubated for 24 hours at 37° C. after which time 100 μL of broth were plated on TSA. TSA plates were incubated 24 hours at 37° C. and the number of CFU counted to calculate the CFU/peg. […]

MRSA biofilm [4] = assay: as above; type: cell-based, methicillin-resistant Staphylococcus aureus; conditions: for MIC: Staphylococcus aureus, MRSA, Table 3A titled MICs, group head missing, values match MBEC; for MBEC, MRSA: Table 4

Structure (SMILES) | MIC (MRSA biofilm [1]) [µg/mL] | MIC (P. aeruginosa biofilm [2]) [µg/mL] | MIC (MRSA) [µg/mL] | MIC (P. aeruginosa biofilm [3]) [µg/mL] | MIC (MRSA biofilm [4]) [µg/mL] | MBEC, MRSA (MRSA biofilm [4])
NCCCNCCCNCc1cccc(CNCCCNCCCN)c1 [CZ-25] | > 5000 | > 5000 | 45 (≈ 123 µM) | > 500 | 25 (≈ 68.6 µM) | 25 μg/mL and 69 μM
NCCCNCCCNCc1cc(CNCCCNCCCN)cc(CNCCCNCCCN)c1 [CZ-52] | 250 (≈ 492 µM) | > 5000 | 3 (≈ 5.91 µM) | 400 (≈ 788 µM) | 20 (≈ 39.4 µM) | 20 μg/mL and 40 μM
NCCCNCCCNCc1cc(CNCCCNCCCN)cc(-c2ccccc2)c1 [CZ-58] | – | – | – | – | – | 30 μg/mL and 68 μM
